According to PubChem BioAssay AID328 (DTP/NCI, 2004):
Several values for one entry are separate records, joined by “and”; a condition that tells them apart may be missing. Identical values can stand only once. Inconclusive results and toxic doses are left out.

Test system: BDF1 mice, P388 leukemia ip, median survival T/C
Experiment: NCI In Vivo Anticancer Drug Screen. Data for tumor model P388 Leukemia (intraperitoneal) in B6D2F1 (BDF1) mice
Conditions: endpoint: median survival time, higher = longer survival
In short: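 T/C = treated-group survival ÷ vehicle-control survival; tumour transplanted into mice before dosing.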

[1] = dose: 100.0 mg/kg/injection, schedule: Q01DX009 (ip), vehicle: other
[2] = dose: 100.0 mg/kg/injection, schedule: Q04DX003 (ip), vehicle: saline with Tween-80
[3] = dose: 200.0 mg/kg/injection, schedule: Q01DX009 (ip), vehicle: other
[4] = dose: 200.0 mg/kg/injection, schedule: Q04DX003 (ip), vehicle: saline with Tween-80
[5] = dose: 400.0 mg/kg/injection, schedule: Q04DX003 (ip), vehicle: saline with Tween-80
[6] = dose: 100.0 mg/kg/injection, schedule: Q04DX003 (ip), vehicle: Klucel (hydroxypropylcellulose) (HPC)
[7] = dose: 200.0 mg/kg/injection, schedule: Q04DX003 (ip), vehicle: Klucel (hydroxypropylcellulose) (HPC)
[8] = dose: 400.0 mg/kg/injection, schedule: Q04DX003 (ip), vehicle: Klucel (hydroxypropylcellulose) (HPC)
[9] = dose: 50.0 mg/kg/injection, schedule: Q01DX009 (ip), vehicle: Klucel (hydroxypropylcellulose) (HPC)
[10] = dose: 100.0 mg/kg/injection, schedule: Q01DX009 (ip), vehicle: Klucel (hydroxypropylcellulose) (HPC)
[11] = dose: 200.0 mg/kg/injection, schedule: Q01DX009 (ip), vehicle: Klucel (hydroxypropylcellulose) (HPC)
[12] = dose: 50.0 mg/kg/injection, schedule: Q04DX003 (ip), vehicle: saline with Tween-80
[13] = dose: 50.0 mg/kg/injection, schedule: Q01DX009 (ip), vehicle: saline with Tween-80

In the case of `CCCCCCCCCCCC[Si](CCCCCCCCCCCC)(c1ccccc1)c1ccccc1`, the T/C [1] is reported as 95 % of control, the T/C [2] is reported as 100 % of control and the T/C [3] is reported as 114 % of control. For the same molecule, the T/C [4] was 100 % of control, the T/C (dose: 400.0 mg/kg/injection, schedule: Q01DX009 (ip), vehicle: other) was 109 % of control and the T/C [5] was 100 % of control.

In the case of `CCCCCCCCCC(O)CCC` (centres undefined), the T/C [6] is reported as 95 % of control, the T/C [7] is reported as 95 % of control and the T/C [8] is reported as 95 % of control.

In the case of `Cc1c2oc3c(C)ccc(C(=O)NC4C(=O)NC(C(C)C)C(=O)N5CCCC5C(=O)N(C)CC(=O)N(C)C(C(C)C)C(=O)OC4C)c3nc-2c(C(=O)NC2C(=O)NC(C(C)C)C(=O)N3CCCC3C(=O)N(C)CC(=O)N(C)C(C(C)C)C(=O)OC2C)cc1=O` (centres undefined), the T/C (dose: 0.24 mg/kg/injection, schedule: Q01DX009 (ip), vehicle: saline + alcohol) is reported as 97 % of control, the T/C (dose: 0.34 mg/kg/injection, schedule: Q01DX009 (ip), vehicle: saline + alcohol) is reported as 101 % of control and the T/C (dose: 0.49 mg/kg/injection, schedule: Q01DX009 (ip), vehicle: saline + alcohol) is reported as 100 % of control. For the same molecule, the T/C (dose: 0.7 mg/kg/injection, schedule: Q01DX009 (ip), vehicle: saline + alcohol) was 112 % of control, the T/C (dose: 1.0 mg/kg/injection, schedule: Q01DX009 (ip), vehicle: saline + alcohol) was 106 % of control and the T/C (dose: 1.17 mg/kg/injection, schedule: Q04DX003 (ip), vehicle: saline + alcohol) was 107 % of control and 124 % of control. The T/C (dose: 1.7 mg/kg/injection, schedule: Q04DX003 (ip), vehicle: saline + alcohol) was 104 % of control, the T/C (dose: 1.94 mg/kg/injection, schedule: Q04DX003 (ip), vehicle: saline + alcohol) was 107 % of control and the T/C (dose: 2.4 mg/kg/injection, schedule: Q01DX001 (ip), vehicle: saline + alcohol) was 112 % of control. For the same molecule, the T/C (dose: 3.4 mg/kg/injection, schedule: Q01DX001 (ip), vehicle: saline + alcohol) was 113 % of control, the T/C (dose: 4.9 mg/kg/injection, schedule: Q04DX003 (ip), vehicle: saline + alcohol) was 150 % of control and the T/C (dose: 5.4 mg/kg/injection, schedule: Q04DX003 (ip), vehicle: saline + alcohol) was 168 % of control. The T/C (dose: 7.0 mg/kg/injection, schedule: Q04DX003 (ip), vehicle: saline + alcohol) was 169 % of control, the T/C (dose: 9.0 mg/kg/injection, schedule: Q04DX003 (ip), vehicle: saline + alcohol) was 159 % of control and 176 % of control and the T/C (dose: 10.0 mg/kg/injection, schedule: Q01DX001 (ip), vehicle: saline + alcohol) was 153 % of control. For the same molecule, the T/C (dose: 15.0 mg/kg/injection, schedule: Q04DX003 (ip), vehicle: saline + alcohol) was 183 % of control and 193 % of control.

In the case of `Oc1ccc2ccc3[nH]cnc3c2c1`, the T/C [9] is reported as 95 % of control, the T/C [10] is reported as 95 % of control and the T/C [11] is reported as 100 % of control.

For `NC(=O)N/C=C1\CCCOC1=O`, the T/C [12] was 111 % of control, the T/C [2] was 101 % of control and the T/C [4] was 104 % of control. The T/C [5] was 109 % of control.

`CCC(CCC(C)C1CCC2C3CC=C4CC(O)CCC4(C)C3CCC12C)C(C)C` (centres undefined) (tested in a mixture with another compound) was tested, and the T/C (dose: 12.5 mg/kg/injection, schedule: Q#A X020 (ip), vehicle: water) was 90 % of control.

For `Nc1nc(=S)c2[nH]c(=S)[nH]c2[nH]1`, the T/C (dose: 78.0 mg/kg/injection, schedule: Q04DX003 (ip), vehicle: saline with Tween-80) was 104 % of control, the T/C (dose: 118.0 mg/kg/injection, schedule: Q04DX003 (ip), vehicle: saline with Tween-80) was 112 % of control and the T/C [5] was 172 % of control. For the same molecule, the T/C (dose: 600.0 mg/kg/injection, schedule: Q04DX003 (ip), vehicle: saline with Tween-80) was 186 % of control.

With `O=[N+]([O-])c1ccc(Cl)c2c([N+](=O)[O-])cccc12` the T/C [12] was 104 % of control, the T/C [2] was 109 % of control and the T/C [4] was 109 % of control.

`CCOC(=O)C(OCc1ccccc1)(C(=O)Cl)C(C)C` (centres undefined) was tested, and the T/C [13] was 118 % of control.

In the case of `CC(C#N)(Nc1ccccc1)c1ccccc1` (centres undefined), the T/C [2] is reported as 95 % of control, the T/C [4] is reported as 100 % of control and the T/C [5] is reported as 100 % of control.

With `COc1cc(C)c(Cl)c(C)c1C#CC(=O)O` the T/C (dose: 100.0 mg/kg/injection, schedule: Q01DX001 (ip), vehicle: Klucel (hydroxypropylcellulose) (HPC)) was 115 % of control and the T/C (dose: 200.0 mg/kg/injection, schedule: Q01DX001 (ip), vehicle: Klucel (hydroxypropylcellulose) (HPC)) was 111 % of control.

With `O=C1C(N2CC2)=C(N2CCCC(O)C2)C(=O)C(N2CC2)=C1N1CCCC(O)C1` (centres undefined) the T/C (dose: 1.0 mg/kg/injection, schedule: Q01DX009 (ip), vehicle: saline) was 195 % of control and the T/C (dose: 2.0 mg/kg/injection, schedule: Q01DX009 (ip), vehicle: saline) was 99 % of control.

`COc1ccc(/C=C(\CC(=O)O)C(=O)O)cc1OC` was tested, and the T/C [10] was 100 % of control, the T/C [6] was 100 % of control and the T/C [11] was 109 % of control. For the same molecule, the T/C [7] was 100 % of control, the T/C (dose: 400.0 mg/kg/injection, schedule: Q01DX009 (ip), vehicle: Klucel (hydroxypropylcellulose) (HPC)) was 95 % of control and the T/C [8] was 90 % of control.

`NC(CSC(c1ccccc1)(c1ccccc1)c1ccc2ccccc2c1)C(=O)O` (centres undefined) was tested, and the T/C (dose: 2.75 mg/kg/injection, schedule: Q01DX009 (ip), vehicle: saline) was 173 % of control, the T/C (dose: 4.12 mg/kg/injection, schedule: Q01DX009 (ip), vehicle: saline) was 227 % of control and the T/C (dose: 6.25 mg/kg/injection, schedule: Q01DX009 (ip), vehicle: saline) was 250 % of control. For the same molecule, the T/C (dose: 12.5 mg/kg/injection, schedule: Q01DX009 (ip), vehicle: Klucel (hydroxypropylcellulose) (HPC)) was 216 % of control, the T/C (dose: 12.5 mg/kg/injection, schedule: Q01DX009 (ip), vehicle: saline) was 89 % of control and the T/C (dose: 25.0 mg/kg/injection, schedule: Q01DX009 (ip), vehicle: Klucel (hydroxypropylcellulose) (HPC)) was 333 % of control. For the same molecule, the T/C (dose: 25.0 mg/kg/injection, schedule: Q04DX003 (ip), vehicle: Klucel (hydroxypropylcellulose) (HPC)) was 210 % of control, the T/C (dose: 29.0 mg/kg/injection, schedule: Q04DX003 (ip), vehicle: saline) was 200 % of control and the T/C (dose: 45.0 mg/kg/injection, schedule: Q04DX003 (ip), vehicle: saline) was 86 % of control. For the same molecule, the T/C [9] was 200 % of control, the T/C (dose: 50.0 mg/kg/injection, schedule: Q04DX003 (ip), vehicle: Klucel (hydroxypropylcellulose) (HPC)) was 200 % of control and the T/C (dose: 50.0 mg/kg/injection, schedule: Q04DX003 (ip), vehicle: saline) was 300 % of control. The T/C (dose: 66.0 mg/kg/injection, schedule: Q04DX003 (ip), vehicle: saline) was 272 % of control, the T/C [6] was 300 % of control and the T/C (dose: 100.0 mg/kg/injection, schedule: Q04DX003 (ip), vehicle: saline) was 300 % of control and 154 % of control. The T/C (dose: 200.0 mg/kg/injection, schedule: Q04DX003 (ip), vehicle: saline) was 95 % of control.

With `CC(=O)c1ccc2ccccc2c1OC(=O)c1ccncc1` the T/C (dose: 12.5 mg/kg/injection, schedule: Q01DX009 (ip), vehicle: other) was 99 % of control, the T/C (dose: 25.0 mg/kg/injection, schedule: Q01DX009 (ip), vehicle: other) was 98 % of control and the T/C (dose: 50.0 mg/kg/injection, schedule: Q01DX009 (ip), vehicle: other) was 107 % of control. For the same molecule, the T/C [1] was 118 % of control and the T/C [3] was 107 % of control.

`Cc1n[nH]c(=S)[nH]c1=S` was tested, and the T/C (dose: 25.0 mg/kg/injection, schedule: Q04DX003 (ip), vehicle: saline with Tween-80) was 109 % of control, the T/C [12] was 100 % of control and the T/C [2] was 104 % of control.

For `CN(C)Cc1ccc(-c2cc3onc(-c4ccccc4)c3c(=O)n2C)cc1`, the T/C (dose: 50.0 mg/kg/injection, schedule: Q01DX005 (ip), vehicle: saline with Tween-80) was 108 % of control, the T/C (dose: 100.0 mg/kg/injection, schedule: Q01DX005 (ip), vehicle: saline with Tween-80) was 94 % of control and the T/C (dose: 200.0 mg/kg/injection, schedule: Q01DX005 (ip), vehicle: saline with Tween-80) was 97 % of control.

With `COB(C1CCCCC1)C1CCCCC1` the T/C (dose: 75.0 mg/kg/injection, schedule: Q01DX001 (ip), vehicle: saline) was 113 % of control, the T/C (dose: 150.0 mg/kg/injection, schedule: Q01DX001 (ip), vehicle: saline) was 104 % of control and the T/C (dose: 300.0 mg/kg/injection, schedule: Q01DX001 (ip), vehicle: saline) was 95 % of control.

In the case of `CC(NSc1ccccc1[N+](=O)[O-])C(=O)O` (centres undefined), the T/C [13] is reported as 98 % of control and the T/C (dose: 100.0 mg/kg/injection, schedule: Q01DX009 (ip), vehicle: saline with Tween-80) is reported as 113 % of control.

For `CSC(=S)N/N=C(\C)C1CCCC[N-]1.[Cl][Zn][Cl]` (centres undefined), the T/C (dose: 12.5 mg/kg/injection, schedule: Q01DX009 (ip), vehicle: saline with Tween-80) was 105 % of control, the T/C (dose: 25.0 mg/kg/injection, schedule: Q01DX009 (ip), vehicle: saline with Tween-80) was 119 % of control and the T/C [13] was 118 % of control.
